In brackets after ≈: the same amount, converted by molar mass. Where two headings read alike, the source gives them in different places.
Tests used:
[1] = Solubility in water and in 40% (w/v) HPBCD solution by UV absorbance; assay type: physicochemical
Protocol: To determine solubilities, test compounds were first dissolved in ethanol to prepare standard solutions with concentrations in the range 2.5–10 mg/ml, then were diluted with to 10 μg/ml with water. UV scans were obtained of the 10 μg/ml standard solutions, and the wavelength of maximum absorbance and the absorbance at the maximum absorbance wavelength were determined. For each test compound 50 μl aliquots of water and of 40% HPBCD were added to individual Eppendorf tubes containing approximately 1 mg of compound each. The tubes were heated in a 30° C. waterbath, vortexed, then centrifuged at 15,000 rpm for 5 min. This step was repeated, then the tubes were cooled to room temperature for 1 hour, then were centrifuged again. The supernatant from each tube was diluted with water into the appropriate absorbance range, and the UV absorbance was measured at the compound's absorbance maximum wavelength. The concentrations of these saturated solutions were then calculated by ratio to the 10 μg/ml ethanolic standard solutions.

[2] = test system: A549; test: MTS growth inhibition assay; assay type: cell-based, human; details: A549 lung, read-out: Growth inhibitory activity (50% effective concentration, IC50)
Protocol: (§1) A2780 and A2780/CP (ovarian); MCF-7 (breast); HT-29 (colon); BxPC-3 (pancreas); and A549 (lung). The human tumor cell lines (purchased from ATCC, Rockville, Md.) were cultured at 37° C. […] Nova Tech, Grand Island, N.Y.) containing 10% fetal bovine serum (FBS, Nova Tech). Aliquots of cells were seeded into each well of 96-well microtiter plates at a final concentration of 10^4 cells/well and incubated for 24 h prior to exposure to test compounds. […] The MTS assay is a colorimetric assay based upon the ability of viable cells to convert MTS, a novel tetrazolium compound and electron-coupling reagent, to a colored formazan product that is soluble in cell culture medium. The cell concentration is then determined by measuring the absorbance of the formazan product at 490 nm. Growth inhibition, expressed as IC50, is calculated relative to vehicle-treated control cells.

[3] = test system: BxPC-3; test: MTS growth inhibition assay; assay type: cell-based, human; details: BxPC-3 pancreas, read-out: Growth inhibitory activity (50% effective concentration, IC50)
Protocol: as §1

[4] = test system: HT-29; test: MTS growth inhibition assay; assay type: cell-based, human; details: HT-29 colon, read-out: Growth inhibitory activity (50% effective concentration, IC50)
Protocol: as §1

[5] = test system: MCF-7; test: MTS growth inhibition assay; assay type: cell-based, human; details: MCF-7 breast, read-out: Growth inhibitory activity (50% effective concentration, IC50)
Protocol: as §1

[6] = test system: A2780; test: MTS growth inhibition assay; assay type: cell-based, human; details: A2780 (sensitive) ovarian, read-out: Growth inhibitory activity (50% effective concentration, IC50)
Protocol: as §1

[7] = test system: A2780CP; test: MTS growth inhibition assay; assay type: cell-based, human; details: A2780CP (resistant) ovarian, read-out: Growth inhibitory activity (50% effective concentration, IC50)
Protocol: as §1

[8] = test system: six human cancer cells lines; test: MTS growth inhibition assay, summary over all lines; assay type: cell-based; details: all six tumor cell lines; tested up to 20 μM
Protocol: A2780 and A2780/CP (ovarian); MCF-7 (breast); HT-29 (colon); BxPC-3 (pancreas); and A549 (lung). The human tumor cell lines (purchased from ATCC, Rockville, Md.) were cultured at 37° C. (5% CO2) in RPMI medium (RPMI; Nova Tech, Grand Island, N.Y.) containing 10% fetal bovine serum (FBS, Nova Tech). Aliquots of cells were seeded into each well of 96-well microtiter plates at a final concentration of 10^4 cells/well and incubated for 24 h prior to exposure to test compounds. […] The MTS assay is a colorimetric assay based upon the ability of viable cells to convert MTS, a novel tetrazolium compound and electron-coupling reagent, to a colored formazan product that is soluble in cell culture medium. The cell concentration is then determined by measuring the absorbance of the formazan product at 490 nm. Growth inhibition, expressed as IC50, is calculated relative to vehicle-treated control cells.

[9] = Exp 1, 4 h treatment + 24 h drug-free
[10] = Exp 2, 4 h treatment + 24 h drug-free
[11] = Exp 3, 4 h treatment + 24 h drug-free
[12] = 40% (w/v) HPBCD, room temperature, saturated solution
[13] = water, room temperature, saturated solution

Row | Structure (SMILES) | Solubility Enhancement [1] | Solubility in HPBCD Solution [1] | Solubility in Water [1] | IC50 ([2]; Exp 2) | IC50 ([2]; Exp 3) | IC50 ([2]; Mean ± SE of 3 experiments) | IC50 ([3]; Exp 2) | IC50 ([3]; Exp 3) | IC50 ([3]; Mean ± SE of 3 experiments) | IC50 ([4]; Exp 2) | IC50 ([4]; Exp 3) | IC50 ([4]; Mean ± SE of 3 experiments) | IC50 ([5]; Exp 2) | IC50 ([5]; Exp 3) | IC50 ([5]; Mean ± SE of 3 experiments) | IC50 [6, 10] | IC50 [6, 11] | IC50 ([6]; Mean ± SE of 3 experiments) | IC50 ([7]; Exp 2) | IC50 ([7]; Exp 3) | further results
1 | CC1(C)OC2=C(CC1O)C(=O)C(=O)c1ccccc12 (centres unmarked) [Compound 3-Hydroxy-βL, 3-Hydroxy-βL] | 10.6 −Fold | 14600 µg/mL (≈ 56.5 mM) | 1381 µg/mL (≈ 5.35 mM) | – | – | – | – | – | – | – | – | – | – | – | – | – | – | – | – | – | –
2 | CC1(C)OC2=C(CC1Br)C(=O)C(=O)c1ccccc12 (centres unmarked) [Compound 3-Bromo-βL, 3-Bromo-βL] | 191 −Fold | 6900 µg/mL (≈ 21.5 mM) | 36 µg/mL (≈ 0.112 mM) | – | – | – | – | – | – | – | – | – | – | – | – | – | – | – | – | – | –
3 | CC1OC2=C(C(=O)C(=O)c3ccccc32)C1(C)C (centres unmarked) [CO-506] | – | – | – | 12.7 µM | 15.3 µM | 11.8 ± 2.28 µM | 8.4 µM | 9.22 µM | 7.77 ± 1.07 µM | 13.4 µM | 11.2 µM | 14 ± 1.78 µM | 3.99 µM | 3.53 µM | 3.39 ± 0.4 µM | 4.79 µM | 3.23 µM | 3.5 ± 0.68 µM | 3.85 µM | 1.53 µM | IC50 ([2]; Exp 1): 7.5 µM; IC50 ([3]; Exp 1): 5.69 µM; IC50 ([4]; Exp 1): 17.3 µM; IC50 ([5]; Exp 1): 2.64 µM; IC50 [6, 9]: 2.47 µM; IC50 ([7]; Exp 1): 2.73 µM; IC50 ([7]; Mean ± SE of 3 experiments): 2.7 ± 0.67 µM; growth inhibitory activity, verbal summary [8]: activity profile similar to CO-501
4 | CC(C)=CCC1CC2=C(OC1(C)C)c1ccccc1C(=O)C2=O (centres unmarked) [3-(3-methyl-2-butenyl)-βL] | 61 −Fold | 4100 µg/mL (≈ 13.2 mM) | 67 µg/mL (≈ 0.216 mM) | – | – | – | – | – | – | – | – | – | – | – | – | – | – | – | – | – | –
5 | CC1(C)CC(O)C2=C(O1)c1ccccc1C(=O)C2=O (stereo not drawn) [CO-503, 4-hydroxy β-lapachone] | – | – | – | 7.63 µM | 9.77 µM | 10.6 ± 1.98 µM | > 20 µM | > 20 µM | > 20 µM | 11 µM | 12.1 µM | 12.1 ± 0.63 µM | 19.4 µM | 19.3 µM | 19.2 ± 0.17 µM | 5.29 µM | 4.86 µM | 4.16 ± 0.92 µM | 9.38 µM | 14.8 µM | Solubility in HPBCD Solution [1, 12]: 3100 µg/mL (≈ 12 mM); Solubility Enhancement ([1]; 40% HPBCD versus water): 8.0 −Fold; Solubility in Water [1, 13]: 381 µg/mL (≈ 1.48 mM); IC50 ([2]; Exp 1): 14.3 µM; IC50 ([3]; Exp 1): > 20 µM; IC50 ([4]; Exp 1): 13.2 µM; IC50 ([5]; Exp 1): 18.8 µM; IC50 [6, 9]: 2.35 µM; IC50 ([7]; Exp 1): 7.42 µM; IC50 ([7]; Mean ± SE of 3 experiments): 10.5 ± 2.2 µM; growth inhibitory activity, verbal summary [8]: significantly less active across all cell lines
6 | CC1(C)C=CC2=C(O1)c1ccccc1C(=O)C2=O [3,4-dehydro-βL] | 240 −Fold | 5800 µg/mL (≈ 24.1 mM) | 24 µg/mL (≈ 0.0999 mM) | – | – | – | – | – | – | – | – | – | – | – | – | – | – | – | – | – | –
7 | CC1(C)CC(=O)C2=C(O1)c1ccccc1C(=O)C2=O [CO-505] | – | – | – | > 20 µM | > 20 µM | > 20 µM | > 20 µM | > 20 µM | > 20 µM | > 20 µM | > 20 µM | > 20 µM | > 20 µM | > 20 µM | > 20 µM | > 20 µM | > 20 µM | > 20 µM | > 20 µM | > 20 µM | IC50 ([2]; Exp 1): > 20 µM; IC50 ([3]; Exp 1): > 20 µM; IC50 ([4]; Exp 1): > 20 µM; IC50 ([5]; Exp 1): > 20 µM; IC50 [6, 9]: > 20 µM; IC50 ([7]; Exp 1): > 20 µM; IC50 ([7]; Mean ± SE of 3 experiments): > 20 µM; growth inhibitory activity, verbal summary [8]: inactive
8 | CCCCCC(=O)OC1=CC(=O)C(=O)c2ccccc21 [CO-507, 4-hexanoyloxy-1,2-naphthoquinone] | – | – | – | > 20 µM | > 20 µM | > 20 µM | > 20 µM | > 20 µM | > 20 µM | > 20 µM | > 20 µM | > 20 µM | > 20 µM | > 20 µM | > 20 µM | > 20 µM | > 20 µM | > 20 µM | > 20 µM | > 20 µM | IC50 ([2]; Homo sapiens, Exp 1): > 20 µM; IC50 ([3]; Homo sapiens, Exp 1): > 20 µM; IC50 ([4]; Homo sapiens, Exp 1): > 20 µM; IC50 ([5]; Homo sapiens, MCF7, Exp 1): > 20 µM; IC50 ([6]; Homo sapiens, Exp 1, 4 h treatment + 24 h drug-free): > 20 µM; IC50 ([7]; Mean ± SE of 3 experiments): > 20 µM; IC50 ([7]; Homo sapiens, A2780C/P, Exp 1): > 20 µM; growth inhibitory activity, verbal summary [8]: inactive
9 | CC1(C)CC(=O)C2=C(O1)c1ccccc1C(=O)C2=O [Compound 4-keto-βL, 4-keto-βL] | 8.7 −Fold | 4400 µg/mL (≈ 17.2 mM) | 503 µg/mL (≈ 1.96 mM) | – | – | – | – | – | – | – | – | – | – | – | – | – | – | – | – | – | –
10 | CC1OC2=C(C(=O)C(=O)c3ccccc32)C1(C)C (centres unmarked) [Dunnione] | 36 −Fold | 17000 µg/mL (≈ 70.2 mM) | 476 µg/mL (≈ 1.96 mM) | – | – | – | – | – | – | – | – | – | – | – | – | – | – | – | – | – | –
11 | CC(=O)OC1CC(C)(C)OC2=C1C(=O)C(=O)c1ccccc12 (stereo not drawn) [CO-504, 4-acetoxy β-lapachone] | – | – | – | 6.87 µM | 3.75 µM | 9.97 ± 4.74 µM | 13.5 µM | 2.32 µM | 8.74 ± 3.33 µM | 6.67 µM | 3.98 µM | 8.25 ± 3.03 µM | 4.78 µM | 4.28 µM | 3.88 ± 0.67 µM | 1.6 µM | 1.19 µM | 1.54 ± 0.19 µM | 4 µM | 2.56 µM | Solubility in HPBCD Solution [1, 12]: 2100 µg/mL (≈ 6.99 mM); Solubility Enhancement ([1]; 40% HPBCD versus water): 7.4 −Fold; Solubility in Water [1, 13]: 284 µg/mL (≈ 0.946 mM); IC50 ([2]; Exp 1): 19.3 µM; IC50 ([3]; Exp 1): 10.5 µM; IC50 ([4]; Exp 1): 14.1 µM; IC50 ([5]; Exp 1): 2.59 µM; IC50 [6, 9]: 1.83 µM; IC50 ([7]; Exp 1): 0.678 µM; IC50 ([7]; Mean ± SE of 3 experiments): 2.41 ± 0.96 µM; growth inhibitory activity, verbal summary [8]: very similar to CO-501 in inhibitory activity
